Results published in ChEMBL document CHEMBL5465560, “Selectivity Literature for EUbOPEN Chemogenomic Library” (2024).

Columns and labels:
[1] = biological target: Protein-tyrosine kinase 6 (Homo sapiens, UniProt Q13882); test: Selectivity interaction (KinaseProfiler screening (Millipore)) EUB0000601a PTK6; conditions: at 3 µM
[2] = biological target: RAF proto-oncogene serine/threonine-protein kinase (Homo sapiens) (UniProt P04049); conditions: at 10 µM
[3] = biological target: Calcium/calmodulin-dependent protein kinase type 1D (Homo sapiens) (UniProt Q8IU85); test: Selectivity interaction (Ambit KINOMEscan and KiNATiv profiling in Jurkat cells) EUB0000090b CAMK1D; assay type: cell-based; conditions: at 1 µM
Sequence of Calcium/calmodulin-dependent protein kinase type 1D (Homo sapiens) (Q8IU85 whole entry, looked up, canonical isoform): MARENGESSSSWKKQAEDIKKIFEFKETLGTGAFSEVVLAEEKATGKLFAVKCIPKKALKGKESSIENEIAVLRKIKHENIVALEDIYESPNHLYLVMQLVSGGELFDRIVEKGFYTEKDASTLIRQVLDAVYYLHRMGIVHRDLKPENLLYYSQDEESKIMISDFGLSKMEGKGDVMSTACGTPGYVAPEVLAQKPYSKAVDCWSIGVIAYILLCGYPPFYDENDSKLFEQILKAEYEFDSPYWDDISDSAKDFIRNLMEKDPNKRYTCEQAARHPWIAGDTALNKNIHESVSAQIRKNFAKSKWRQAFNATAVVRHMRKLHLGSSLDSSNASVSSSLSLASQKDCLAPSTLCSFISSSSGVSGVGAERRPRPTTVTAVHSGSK

[4] = biological target: T1, Casein kinase I isoform alpha-like (Homo sapiens) (UniProt Q8N752); test: Selectivity interaction (KinomeScan (DiscoverX)) EUB0000655a CSNK1A1L; conditions: at 10 µM
T1 sequence (whole entry): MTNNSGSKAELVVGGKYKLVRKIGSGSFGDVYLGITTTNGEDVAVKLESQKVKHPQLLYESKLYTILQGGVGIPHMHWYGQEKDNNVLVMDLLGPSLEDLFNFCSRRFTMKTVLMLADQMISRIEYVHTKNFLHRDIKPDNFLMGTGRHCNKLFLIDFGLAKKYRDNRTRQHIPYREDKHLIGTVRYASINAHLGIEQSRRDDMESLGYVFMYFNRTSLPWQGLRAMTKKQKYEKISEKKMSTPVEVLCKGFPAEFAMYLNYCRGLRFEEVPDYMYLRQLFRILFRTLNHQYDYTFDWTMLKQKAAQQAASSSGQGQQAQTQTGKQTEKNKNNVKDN

[5] = biological target: Serine/threonine-protein kinase 26 (Homo sapiens, UniProt Q9P289); test: Selectivity interaction (KinomeScan (DiscoverX)) EUB0000618a STK26; conditions: at 10 µM
[6] = biological target: T2, Serine/threonine-protein kinase Nek2 (Homo sapiens) (UniProt P51955); test: Selectivity interaction (Kinase panel (DSF assay)) EUB0001558a NEK2
T2 sequence (whole entry): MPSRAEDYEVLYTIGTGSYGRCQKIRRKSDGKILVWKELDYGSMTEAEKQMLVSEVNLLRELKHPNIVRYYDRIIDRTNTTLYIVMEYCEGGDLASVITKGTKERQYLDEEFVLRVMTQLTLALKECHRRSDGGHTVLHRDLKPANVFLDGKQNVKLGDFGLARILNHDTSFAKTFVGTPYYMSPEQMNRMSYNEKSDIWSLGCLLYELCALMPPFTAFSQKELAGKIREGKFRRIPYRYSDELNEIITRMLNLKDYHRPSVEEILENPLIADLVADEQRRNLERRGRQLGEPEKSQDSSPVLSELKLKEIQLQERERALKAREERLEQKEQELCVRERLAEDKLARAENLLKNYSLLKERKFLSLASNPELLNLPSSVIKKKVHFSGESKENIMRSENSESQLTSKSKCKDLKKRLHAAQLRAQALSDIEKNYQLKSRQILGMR

[7] = Selectivity interaction (KinomeScan (DiscoverX)) EUB0000045b CDPK1; conditions: at 10 µM
[8] = biological target: PAS domain-containing serine/threonine-protein kinase (Homo sapiens) (UniProt Q96RG2); test: Selectivity interaction (Upstate Kinase Profiler service (Millipore)) EUB0000056c PASK; conditions: at 1 µM
Sequence of PAS domain-containing serine/threonine-protein kinase (Homo sapiens) (Q96RG2 whole entry, the tested form may be a part): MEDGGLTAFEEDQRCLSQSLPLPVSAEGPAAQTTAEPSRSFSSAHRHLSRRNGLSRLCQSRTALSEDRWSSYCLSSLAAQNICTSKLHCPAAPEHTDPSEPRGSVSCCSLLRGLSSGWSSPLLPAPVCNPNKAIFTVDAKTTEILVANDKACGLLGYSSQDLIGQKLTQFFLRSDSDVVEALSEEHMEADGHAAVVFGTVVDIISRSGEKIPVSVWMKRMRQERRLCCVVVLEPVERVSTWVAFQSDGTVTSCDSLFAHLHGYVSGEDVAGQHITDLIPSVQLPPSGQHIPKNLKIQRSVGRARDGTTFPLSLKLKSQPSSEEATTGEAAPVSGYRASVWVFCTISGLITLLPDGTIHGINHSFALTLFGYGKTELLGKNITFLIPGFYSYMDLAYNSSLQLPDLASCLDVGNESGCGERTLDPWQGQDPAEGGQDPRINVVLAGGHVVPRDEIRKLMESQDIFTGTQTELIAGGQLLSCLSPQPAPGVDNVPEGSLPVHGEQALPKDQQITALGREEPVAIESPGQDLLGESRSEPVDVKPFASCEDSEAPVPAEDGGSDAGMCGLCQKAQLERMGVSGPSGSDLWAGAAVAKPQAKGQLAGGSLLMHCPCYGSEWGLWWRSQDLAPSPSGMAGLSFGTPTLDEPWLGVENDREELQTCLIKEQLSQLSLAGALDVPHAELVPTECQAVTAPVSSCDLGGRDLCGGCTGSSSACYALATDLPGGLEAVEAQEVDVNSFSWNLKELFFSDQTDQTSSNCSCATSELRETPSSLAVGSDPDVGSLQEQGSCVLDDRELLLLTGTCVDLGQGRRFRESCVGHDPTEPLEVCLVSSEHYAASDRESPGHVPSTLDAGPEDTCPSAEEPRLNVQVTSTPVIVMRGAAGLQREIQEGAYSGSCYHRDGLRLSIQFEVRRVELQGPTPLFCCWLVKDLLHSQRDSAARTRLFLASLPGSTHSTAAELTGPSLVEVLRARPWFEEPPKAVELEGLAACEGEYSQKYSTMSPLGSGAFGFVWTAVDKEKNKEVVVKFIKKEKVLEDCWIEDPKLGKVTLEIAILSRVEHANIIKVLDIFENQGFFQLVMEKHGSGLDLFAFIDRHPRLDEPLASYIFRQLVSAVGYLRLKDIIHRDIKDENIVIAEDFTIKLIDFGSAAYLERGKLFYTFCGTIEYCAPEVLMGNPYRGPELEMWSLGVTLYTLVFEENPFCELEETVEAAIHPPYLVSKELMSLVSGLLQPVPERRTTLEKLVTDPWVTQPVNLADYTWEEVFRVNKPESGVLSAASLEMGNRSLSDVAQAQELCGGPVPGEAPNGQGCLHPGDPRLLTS

[9] = biological target: Wee1-like protein kinase (Homo sapiens) (UniProt P30291); conditions: at 10 µM
Sequence of Wee1-like protein kinase (Homo sapiens) (P30291 whole entry, looked up): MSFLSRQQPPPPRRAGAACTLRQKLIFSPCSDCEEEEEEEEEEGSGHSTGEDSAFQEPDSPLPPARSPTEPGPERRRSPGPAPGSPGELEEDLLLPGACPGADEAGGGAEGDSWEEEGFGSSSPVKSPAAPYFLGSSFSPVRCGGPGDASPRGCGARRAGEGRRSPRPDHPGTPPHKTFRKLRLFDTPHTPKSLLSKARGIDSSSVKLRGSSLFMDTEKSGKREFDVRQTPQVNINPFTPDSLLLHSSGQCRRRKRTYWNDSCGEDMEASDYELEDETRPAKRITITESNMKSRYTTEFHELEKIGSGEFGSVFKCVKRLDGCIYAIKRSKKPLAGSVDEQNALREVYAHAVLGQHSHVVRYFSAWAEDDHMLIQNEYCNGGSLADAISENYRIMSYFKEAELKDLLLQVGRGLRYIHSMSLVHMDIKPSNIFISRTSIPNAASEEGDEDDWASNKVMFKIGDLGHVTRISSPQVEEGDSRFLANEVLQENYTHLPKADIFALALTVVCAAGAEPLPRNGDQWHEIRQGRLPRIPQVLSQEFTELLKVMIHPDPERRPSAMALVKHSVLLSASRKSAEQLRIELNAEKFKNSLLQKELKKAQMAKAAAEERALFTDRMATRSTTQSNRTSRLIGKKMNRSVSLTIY

[10] = biological target: T3, EKC/KEOPS complex subunit TP53RK (Homo sapiens) (UniProt Q96S44); test: Selectivity interaction (ActivX KiNativ screen (kinase selectivity in THP-1 cell lysates)) EUB0000639a TP53RK; assay type: subcellular; conditions: lysate
T3 sequence (whole entry): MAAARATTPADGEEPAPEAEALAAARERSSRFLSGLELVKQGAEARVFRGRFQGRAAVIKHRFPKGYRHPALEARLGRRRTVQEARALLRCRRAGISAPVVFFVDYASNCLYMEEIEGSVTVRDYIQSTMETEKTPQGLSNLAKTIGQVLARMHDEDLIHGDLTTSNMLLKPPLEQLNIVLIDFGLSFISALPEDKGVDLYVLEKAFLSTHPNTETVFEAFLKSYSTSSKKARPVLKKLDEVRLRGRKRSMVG

[11] = biological target: Serine/threonine-protein kinase PLK2 (Homo sapiens, UniProt Q9NYY3); test: Selectivity interaction (Kinase panel (Invitrogen)) EUB0000639a PLK2; conditions: at 200 nM
Sequence of Serine/threonine-protein kinase PLK2 (Q9NYY3 whole entry, looked up): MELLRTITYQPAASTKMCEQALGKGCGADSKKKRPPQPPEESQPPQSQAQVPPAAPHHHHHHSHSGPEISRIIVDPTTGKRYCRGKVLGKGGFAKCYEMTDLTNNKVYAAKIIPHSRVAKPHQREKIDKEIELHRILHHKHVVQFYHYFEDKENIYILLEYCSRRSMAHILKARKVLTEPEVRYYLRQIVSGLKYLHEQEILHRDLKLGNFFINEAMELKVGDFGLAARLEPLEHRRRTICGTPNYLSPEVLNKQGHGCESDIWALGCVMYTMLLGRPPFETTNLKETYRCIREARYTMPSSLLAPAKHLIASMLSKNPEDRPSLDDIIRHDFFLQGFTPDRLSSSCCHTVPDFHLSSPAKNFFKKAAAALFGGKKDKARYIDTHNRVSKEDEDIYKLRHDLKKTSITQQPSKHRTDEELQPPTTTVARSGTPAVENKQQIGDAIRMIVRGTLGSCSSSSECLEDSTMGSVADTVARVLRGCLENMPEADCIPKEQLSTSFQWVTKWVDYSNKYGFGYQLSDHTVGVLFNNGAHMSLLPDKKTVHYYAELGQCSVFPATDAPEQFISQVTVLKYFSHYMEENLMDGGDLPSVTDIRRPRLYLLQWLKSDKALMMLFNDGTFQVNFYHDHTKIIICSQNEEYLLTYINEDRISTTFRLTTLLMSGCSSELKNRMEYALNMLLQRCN

[12] = system: Epidermal growth factor receptor (Homo sapiens), P00533 [UNDEFINED MUTATION]; test: Selectivity interaction (ProQinase) EUB0000171b EGFR; conditions: at 1 µM
Sequence of Epidermal growth factor receptor (Homo sapiens), P00533 [UNDEFINED MUTATION] (P00533 whole entry, looked up, change not shown): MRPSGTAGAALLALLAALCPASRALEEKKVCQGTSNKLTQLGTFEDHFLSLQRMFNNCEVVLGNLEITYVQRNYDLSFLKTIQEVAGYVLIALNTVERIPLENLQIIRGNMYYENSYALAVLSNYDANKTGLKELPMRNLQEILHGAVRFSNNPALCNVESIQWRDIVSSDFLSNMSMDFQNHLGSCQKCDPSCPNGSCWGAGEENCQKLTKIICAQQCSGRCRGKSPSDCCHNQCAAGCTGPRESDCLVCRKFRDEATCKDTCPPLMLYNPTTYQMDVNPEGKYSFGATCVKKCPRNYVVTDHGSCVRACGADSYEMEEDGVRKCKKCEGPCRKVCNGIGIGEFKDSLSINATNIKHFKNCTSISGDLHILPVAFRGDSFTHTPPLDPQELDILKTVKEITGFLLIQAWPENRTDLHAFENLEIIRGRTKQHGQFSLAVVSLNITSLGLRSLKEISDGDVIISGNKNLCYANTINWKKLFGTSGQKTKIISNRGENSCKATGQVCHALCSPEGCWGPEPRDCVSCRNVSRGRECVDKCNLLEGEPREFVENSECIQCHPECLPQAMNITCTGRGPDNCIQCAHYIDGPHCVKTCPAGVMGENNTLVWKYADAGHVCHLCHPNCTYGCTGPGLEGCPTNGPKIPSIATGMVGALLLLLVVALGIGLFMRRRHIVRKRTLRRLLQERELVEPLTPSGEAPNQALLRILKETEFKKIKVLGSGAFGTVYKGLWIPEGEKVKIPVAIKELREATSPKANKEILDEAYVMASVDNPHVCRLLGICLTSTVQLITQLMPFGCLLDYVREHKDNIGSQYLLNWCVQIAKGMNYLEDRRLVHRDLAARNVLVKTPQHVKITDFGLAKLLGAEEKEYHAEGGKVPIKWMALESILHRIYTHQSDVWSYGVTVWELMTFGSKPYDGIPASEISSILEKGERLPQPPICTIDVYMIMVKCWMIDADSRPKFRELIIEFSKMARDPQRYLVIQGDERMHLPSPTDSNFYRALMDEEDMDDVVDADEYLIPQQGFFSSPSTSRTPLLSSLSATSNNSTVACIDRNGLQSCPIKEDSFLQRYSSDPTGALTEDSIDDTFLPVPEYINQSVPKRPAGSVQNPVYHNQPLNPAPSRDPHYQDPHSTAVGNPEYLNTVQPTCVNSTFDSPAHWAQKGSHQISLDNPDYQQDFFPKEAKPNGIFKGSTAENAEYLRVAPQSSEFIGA

[13] = biological target: T4, Mitogen-activated protein kinase kinase kinase 2 (Homo sapiens) (UniProt Q9Y2U5); test: Selectivity interaction (KinomeScan (DiscoverX)) EUB0000695a MAP3K2; conditions: at 100 nM
T4 sequence (whole entry): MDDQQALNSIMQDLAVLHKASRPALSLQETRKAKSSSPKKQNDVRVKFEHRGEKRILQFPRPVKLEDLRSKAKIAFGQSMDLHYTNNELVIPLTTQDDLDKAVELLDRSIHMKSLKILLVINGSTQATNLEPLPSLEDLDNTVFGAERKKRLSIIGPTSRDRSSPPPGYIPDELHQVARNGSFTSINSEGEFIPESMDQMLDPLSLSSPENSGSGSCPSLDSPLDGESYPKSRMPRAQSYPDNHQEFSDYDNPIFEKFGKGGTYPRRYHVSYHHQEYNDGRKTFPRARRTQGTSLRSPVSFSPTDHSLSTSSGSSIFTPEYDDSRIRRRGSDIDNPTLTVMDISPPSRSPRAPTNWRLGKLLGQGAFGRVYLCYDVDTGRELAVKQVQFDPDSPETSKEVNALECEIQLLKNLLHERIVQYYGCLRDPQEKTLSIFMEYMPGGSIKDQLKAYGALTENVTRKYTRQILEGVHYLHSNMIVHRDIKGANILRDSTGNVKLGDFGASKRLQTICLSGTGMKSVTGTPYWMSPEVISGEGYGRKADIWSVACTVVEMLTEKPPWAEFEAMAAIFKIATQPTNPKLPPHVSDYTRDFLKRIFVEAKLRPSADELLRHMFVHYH

[14] = biological target: cAMP-dependent protein kinase catalytic subunit beta (Homo sapiens) (UniProt P22694); test: Selectivity interaction (KinomeScan (DiscoverX)) EUB0000695a PRKACB; conditions: at 100 nM
[15] = biological target: Serine/threonine-protein kinase 38 (Homo sapiens) (UniProt Q15208); test: Selectivity interaction (KinomeScan (DiscoverX)) EUB0000695a STK38; conditions: at 100 nM

Sequence of RAF proto-oncogene serine/threonine-protein kinase (Homo sapiens) (P04049 whole entry): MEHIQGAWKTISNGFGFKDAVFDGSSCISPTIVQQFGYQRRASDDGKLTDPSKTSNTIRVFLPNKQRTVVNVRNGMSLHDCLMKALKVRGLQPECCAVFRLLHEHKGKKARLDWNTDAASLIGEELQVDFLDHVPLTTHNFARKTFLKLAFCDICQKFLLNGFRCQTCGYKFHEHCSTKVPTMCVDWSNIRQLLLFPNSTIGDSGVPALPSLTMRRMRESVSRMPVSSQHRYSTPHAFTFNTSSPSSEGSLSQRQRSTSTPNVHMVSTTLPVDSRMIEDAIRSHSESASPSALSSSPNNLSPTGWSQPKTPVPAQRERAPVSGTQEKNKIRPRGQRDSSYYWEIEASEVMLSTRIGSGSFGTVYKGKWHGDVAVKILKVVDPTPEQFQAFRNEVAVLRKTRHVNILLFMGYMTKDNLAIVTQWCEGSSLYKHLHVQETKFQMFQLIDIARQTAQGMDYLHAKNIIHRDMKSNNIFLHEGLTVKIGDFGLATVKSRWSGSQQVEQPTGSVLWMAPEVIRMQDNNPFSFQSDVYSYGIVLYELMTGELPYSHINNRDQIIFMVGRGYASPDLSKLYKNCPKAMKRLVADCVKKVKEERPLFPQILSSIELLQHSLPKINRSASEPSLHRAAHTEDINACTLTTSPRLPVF

For `CCc1cc(Nc2nccc(-c3c(-c4ccc(OC)c(C(=O)Nc5c(F)cccc5F)c4)nc4ccccn34)n2)c(OC)cc1N1CCC(N2CCN(S(C)(=O)=O)CC2)CC1`, the % of inhibition [1] was 65%.

Compound `CCN(CC)CCCCNc1ncc2cc(-c3cc(OC)cc(OC)c3)c(NC(=O)NC(C)(C)C)nc2n1` has a % of control [2] of 100%.

For `CN(C)C/C=C/C(=O)Nc1ccc(C(=O)N2CCCC(Nc3ncc(Cl)c(-c4c[nH]c5ccccc45)n3)C2)cc1` (centres undefined), the % of control [3] was 78%.

With `CN(C)CCOc1ccc(-c2nc(-c3ccncc3)c(-c3ccc4c(c3)CC/C4=N\O)[nH]2)cc1` the % of control [4] was 88%.

For `O[C@H]1CC[C@H](Nc2ncc3nc(Nc4c(F)cc(F)cc4F)n([C@H]4CCOC4)c3n2)CC1`, the % of control [5] was 82%.

`CC(C)(O)[C@H](F)CN1Cc2cc(NC(=O)c3cnn4cccnc34)c(N3CCOCC3)cc2C1=O` gave a dTM [6] of 0.4 K.

For `C=CC(=O)Nc1cc(-n2c(=O)ccc3cnc4ccc(-c5ccc(NS(C)(=O)=O)cc5)cc4c32)ccc1C`, the % of control [7] was 100%.

In the case of `Cc1ccc(-c2ccc3c(ccc4sc5c(c43)NC[C@@H](C)NC5=O)n2)cn1`, the % of inhibition [8] is reported as 44%.

Compound `Cc1cc([C@@H](C)Nc2ccccc2C(=O)O)c2nc(N3CCOCC3)cc(=O)n2c1` [AZD-6482] has a % of control [9] of 100%.

Work on `CC[C@@H]1[C@H](F)C(=O)N[C@@H]1COc1nccc2cc(C(N)=O)c(OC)cc12` [ZIMLOVISERTIB] yielded a % of inhibition ([10]; at 0.01 µM) of 13.5%, a % of inhibition ([10]; at 0.04 µM) of 5.2% and a % of inhibition ([10]; at 0.2 µM) of 15.3%. The % of inhibition ([10]; at 1 µM) was 30.7%, the % of inhibition ([10]; at 5 µM) was 60.6% and the % of inhibition [11] was 5.58%.

`C=CC(=O)Nc1cccc(C(=O)Nc2ccc(Nc3cc(-c4[nH]c(SC)nc4C)ccn3)cc2)c1` gave a % of control [12] of 88%.

For `Cc1cc(F)c(C(=O)Nc2cccc(-c3nncn3C(C)C)n2)cc1-n1cnc(C2CC2)c1`, the % of control [13] was 100%, the % of control [14] was 100% and the % of control [15] was 93%.
